Structures are written as SMILES.

A word on the Ki: it is a measure of affinity in units of concentration, obtained from inhibition or displacement. A low value points to a stronger hold on the target.

Chain of GST-tagged-Wee1 kinase (P30291 whole entry): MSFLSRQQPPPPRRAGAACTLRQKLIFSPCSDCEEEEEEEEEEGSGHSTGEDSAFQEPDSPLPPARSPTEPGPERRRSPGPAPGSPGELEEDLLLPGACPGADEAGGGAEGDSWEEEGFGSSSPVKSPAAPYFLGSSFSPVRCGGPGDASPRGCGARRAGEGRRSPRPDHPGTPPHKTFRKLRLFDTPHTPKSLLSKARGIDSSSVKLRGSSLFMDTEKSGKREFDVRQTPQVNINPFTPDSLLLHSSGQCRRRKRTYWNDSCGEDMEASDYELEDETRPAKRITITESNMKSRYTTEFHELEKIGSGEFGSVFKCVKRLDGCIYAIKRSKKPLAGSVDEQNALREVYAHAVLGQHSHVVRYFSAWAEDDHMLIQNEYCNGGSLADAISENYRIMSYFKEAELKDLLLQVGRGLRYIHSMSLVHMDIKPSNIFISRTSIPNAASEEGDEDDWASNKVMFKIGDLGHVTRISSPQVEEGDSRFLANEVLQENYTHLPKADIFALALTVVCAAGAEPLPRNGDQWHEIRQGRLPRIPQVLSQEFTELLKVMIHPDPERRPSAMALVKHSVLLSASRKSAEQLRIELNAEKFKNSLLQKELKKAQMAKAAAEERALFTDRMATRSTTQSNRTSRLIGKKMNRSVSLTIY

This experiment has as its target GST-tagged-Wee1 kinase (Homo sapiens, UniProt P30291). The experiment in a line: Wee1 time-resolved fluorescence equilibrium binding assay (displacement of Oregon Green-labeled ATP-competitive kinase probe). As for the experimental part:
Wee1 kinase was assayed using a time-resolved fluorescence equilibrium binding assay monitoring displacement of a rapidly reversible Oregon Green-labeled ATP-competitive kinase probe (N-(2-(2-(2-(4-(4-(5-chloro-4-(2-(1-hydroxycyclobutyl)thiazol-5-yl)-1H-pyrrolo[2,3-b]pyridin-2-yl)phenyl)piperazin-1-yl)ethoxy)ethoxy)ethyl)-2′,7′-difluoro-3′,6′-dihydroxy-3-oxo-3H-spiro[isobenzofuran-1,9′-xanthene]-5-carboxamide) by competitive Wee1 inhibitors.
`CN1CCN(c2ccc(Nc3ncc4c(=O)n(-c5ccccc5Cl)nc(-c5ccccc5)c4n3)cc2)CC1` [Example 29, 6-(2-chlorophenyl)-2-{[4-(4-methylpiperazin-1-yl)phenyl]amino}-8-phenylpyrimido[4,5-d]pyridazin-5(6H)-one] gave an inhibition constant (Ki) of less than 1 nM.

For `CN1CCN(c2ccc(Nc3ncc4c(=O)n(-c5ccccc5Cl)nc(Cc5ccccc5)c4n3)cc2)CC1` [Example 26, 8-benzyl-6-(2-chlorophenyl)-2-{[4-(4-methylpiperazin-1-yl)phenyl]amino}pyrimido[4,5-d]pyridazin-5(6H)-one], the Ki is 12 nM.

The compound `Cc1nn(-c2c(F)cccc2Cl)c(=O)c2cnc(Nc3ccc4c(c3)CNCC4)nc12` [Example 398, 6-(2-chloro-6-fluorophenyl)-8-methyl-2-(1,2,3,4-tetrahydroisoquinolin-7-ylamino)pyrimido[4,5-d]pyridazin-5(6H)-one] gave a Ki of 1 nM.

With `C=CCn1nc(-c2ccccc2)c2nc(Nc3ccc(N4CCCC4=O)cc3)ncc2c1=O` [Example 142, 6-allyl-2-{[4-(2-oxopyrrolidin-1-yl)phenyl]amino}-8-phenylpyrimido[4,5-d]pyridazin-5(6H)-one], the affinity, expressed as Ki, was 57 nM.

`CCc1nn(-c2c(Cl)cccc2Cl)c(=O)c2cnc(Nc3ccc(N4C[C@H]5C[C@@H]4CN5)cc3)nc12` [Example 468, 2-({4-[(1R,4R)-2,5-diazabicyclo[2.2.1]hept-2-yl]phenyl}amino)-6-(2,6-dichlorophenyl)-8-ethylpyrimido[4,5-d]pyridazin-5(6H)-one] displayed a Ki of 0.69 nM.

The compound `CN1CCN(c2ccc(Nc3ncc4c(=O)n(-c5c(F)cccc5Cl)nc(-c5cnn(C)c5)c4n3)cc2)CC1` [Example 302, 6-(2-chloro-6-fluorophenyl)-2-{[4-(4-methylpiperazin-1-yl)phenyl]amino}-8-(1-methyl-1H-pyrazol-4-yl)pyrimido[4,5-d]pyridazin-5(6H)-one] had a Ki of 0.61 nM.

As to `CC(=O)N1CCN(c2ccc(Nc3ncc4c(=O)n(-c5c(Cl)cccc5Cl)nc(-c5ccncc5)c4n3)cc2)CC1` [Example 378, 2-{[4-(4-acetylpiperazin-1-yl)phenyl]amino}-6-(2,6-dichlorophenyl)-8-(pyridin-4-yl)pyrimido[4,5-d]pyridazin-5(6H)-one], the Ki turned out to be 0.49 nM.

With `Cc1cccc(Cl)c1-n1nc(C)c2nc(Nc3ccc4c(c3)CNCC4)ncc2c1=O` [Example 495, 6-(2-chloro-6-methylphenyl)-8-methyl-2-(1,2,3,4-tetrahydroisoquinolin-7-ylamino)pyrimido[4,5-d]pyridazin-5(6H)-one], the Ki is 0.16 nM.

`CN1CCN(c2ccc(Nc3ncc4c(=O)n(-c5ccccc5F)nc(C5CC(F)(F)C5)c4n3)cc2)CC1` [Example 198, 8-(3,3-difluorocyclobutyl)-6-(2-fluorophenyl)-2-{[4-(4-methylpiperazin-1-yl)phenyl]amino}pyrimido[4,5-d]pyridazin-5(6H)-one] yielded a Ki of 25 nM.

Turning to `Cc1nn(-c2c(Cl)cccc2Cl)c(=O)c2cnc(Nc3ccc(N4CC5CNCC5C4)cc3)nc12` (centres unmarked) [Example 446, 6-(2,6-dichlorophenyl)-2-{[4-(hexahydropyrrolo[3,4-c]pyrrol-2(1H)-yl)phenyl]amino}-8-methylpyrimido[4,5-d]pyridazin-5(6H)-one], the Ki came out at 0.27 nM.

With `O=c1c2cnc(Nc3ccc4c(c3)CNCC43CC3)nc2cnn1-c1c(Cl)cccc1Cl` [Example 326, 6-(2,6-dichlorophenyl)-2-(2′,3′-dihydro-1′H-spiro[cyclopropane-1,4′-isoquinolin]-7′-ylamino)pyrimido[4,5-d]pyridazin-5(6H)-one], the Ki came to 0.53 nM.

On to `C=CCn1nc(-c2cccs2)c2nc(Nc3ccc4c(c3)CN(C)CC43CC3)ncc2c1=O` [Example 117, 6-allyl-2-[(2′-methyl-2′,3′-dihydro-1′H-spiro[cyclopropane-1,4′-isoquinolin]-7′-yl)amino]-8-(2-thienyl)pyrimido[4,5-d]pyridazin-5(6H)-one], for which the inhibition constant Ki is 3 nM.

`CN1CCN(c2ccc(Nc3ncc4c(=O)n(-c5c(Cl)cccc5Cl)nc(-c5ccccc5F)c4n3)cc2)CC1` [Example 45, 6-(2,6-dichlorophenyl)-8-(2-fluorophenyl)-2-{[4-(4-methylpiperazin-1-yl)phenyl]amino}pyrimido[4,5-d]pyridazin-5(6H)-one] showed an inhibition constant (Ki) of 1 nM.

Consider `C=CCn1nc(-c2ccccc2)c2nc(Nc3ccc(N4CCN(C)CC4)cc3)ncc2c1=O` [Example 5, 6-allyl-2-{[4-(4-methylpiperazin-1-yl)phenyl]amino}-8-phenylpyrimido[4,5-d]pyridazin-5(6H)-one], for which the affinity, expressed as Ki, was 6 nM.

In the case of `O=c1c2cnc(Nc3ccc(N4CCN(C5COC5)CC4)cc3)nc2c(-c2ccncc2)nn1-c1c(Cl)cccc1Cl` [Example 321, 6-(2,6-dichlorophenyl)-2-({4-[4-(oxetan-3-yl)piperazin-1-yl]phenyl}amino)-8-(pyridin-4-yl)pyrimido[4,5-d]pyridazin-5(6H)-one], the affinity, expressed as Ki, was 0.8 nM.

The compound `O=c1c2cnc(Nc3ccc(N4CCNCC4)cc3)nc2c(-c2ccncc2)nn1-c1c(F)cccc1Cl` [Example 297, 6-(2-chloro-6-fluorophenyl)-2-{[4-(piperazin-1-yl)phenyl]amino}-8-(pyridin-4-yl)pyrimido[4,5-d]pyridazin-5(6H)-one] gave a Ki of 0.19 nM.

`CN1CCc2ccc(Nc3ncc4c(=O)n(-c5c(Cl)cccc5Cl)nc(C(F)F)c4n3)cc2C1` [Example 475, 6-(2,6-dichlorophenyl)-8-(difluoromethyl)-2-[(2-methyl-1,2,3,4-tetrahydroisoquinolin-7-yl)amino]pyrimido[4,5-d]pyridazin-5(6H)-one] showed a Ki of 0.24 nM.

On to `CN1CCN(c2ccc(Nc3ncc4c(=O)n(-c5c(Cl)cncc5Cl)nc(-c5cn(C)cn5)c4n3)cc2)CC1` [Example 361, 6-(3,5-dichloropyridin-4-yl)-8-(1-methyl-1H-imidazol-4-yl)-2-{[4-(4-methylpiperazin-1-yl)phenyl]amino}pyrimido[4,5-d]pyridazin-5(6H)-one], for which the Ki stood at 4.4 nM.

With `CC1CCCC(C)C1n1nc(-c2ccccn2)c2nc(Nc3ccc4c(c3)CNCC4(C)C)ncc2c1=O` (centres unmarked) [Example 331, 6-(2,6-dimethylcyclohexyl)-2-[(4,4-dimethyl-1,2,3,4-tetrahydroisoquinolin-7-yl)amino]-8-(pyridin-2-yl)pyrimido[4,5-d]pyridazin-5(6H)-one], the affinity, expressed as Ki, was 180 nM.

In turn, `CN(C)CCn1ccc(-c2nn(-c3c(Cl)cccc3Cl)c(=O)c3cnc(Nc4ccc(N5CCN(C)CC5)cc4)nc23)n1` [Example 240, 6-(2,6-dichlorophenyl)-8-{1-[2-(dimethylamino)ethyl]-1H-pyrazol-3-yl}-2-{[4-(4-methylpiperazin-1-yl)phenyl]amino}pyrimido[4,5-d]pyridazin-5(6H)-one] yielded a Ki of 0.5 nM.

`C=CCn1nc(CCC)c2nc(Nc3ccc(N4CCN(C)CC4)cc3)ncc2c1=O` [Example 16, 6-allyl-2-{[4-(4-methylpiperazin-1-yl)phenyl]amino}-8-propylpyrimido[4,5-d]pyridazin-5(6H)-one] registered a Ki of 130 nM.

With `CC(C)N1CCCC(c2nn(-c3c(Cl)cccc3Cl)c(=O)c3cnc(Nc4ccc(N5CCN(C)CC5)cc4)nc23)C1` (centres unmarked) [Example 147, 6-(2,6-dichlorophenyl)-8-(1-isopropylpiperidin-3-yl)-2-{[4-(4-methylpiperazin-1-yl)phenyl]amino}pyrimido[4,5-d]pyridazin-5(6H)-one], the Ki was determined as 12 nM.

With `Cc1cc(Nc2ncc3c(=O)n(-c4c(Cl)cccc4Cl)nc(-c4ccn(C)n4)c3n2)ccc1N1CCCN(C)CC1` [Example 152, 6-(2,6-dichlorophenyl)-2-{[3-methyl-4-(4-methyl-1,4-diazepan-1-yl)phenyl]amino}-8-(1-methyl-1H-pyrazol-3-yl)pyrimido[4,5-d]pyridazin-5(6H)-one], the affinity corresponds to a Ki of 0.04 nM.

`CN1CCN(c2ccc(Nc3ncc4c(=O)n(-c5ccccc5)nc(Cc5ccccc5)c4n3)cc2)CC1` [Example 19, 8-benzyl-2-{[4-(4-methylpiperazin-1-yl)phenyl]amino}-6-phenylpyrimido[4,5-d]pyridazin-5(6H)-one]: the Ki worked out at 73 nM.

`CN1CCN(c2ccc(Nc3ncc4c(=O)n(-c5c(Cl)cccc5Cl)nc(-c5ccc(C(=O)NC6CCC6)cc5)c4n3)cc2)CC1` [Example 292, N-cyclobutyl-4-[6-(2,6-dichlorophenyl)-2-{[4-(4-methylpiperazin-1-yl)phenyl]amino}-5-oxo-5,6-dihydropyrimido[4,5-d]pyridazin-8-yl]benzamide] returned a Ki of 0.48 nM.

In the case of `CN1CCN(c2ccc(Nc3ncc4c(=O)n(-c5ncccc5Cl)nc(-c5ccncc5)c4n3)cc2)CC1` [Example 336, 6-(3-chloropyridin-2-yl)-2-{[4-(4-methylpiperazin-1-yl)phenyl]amino}-8-(pyridin-4-yl)pyrimido[4,5-d]pyridazin-5(6H)-one], the Ki came out at 0.49 nM.

`CCc1nn(-c2c(Cl)cccc2Cl)c(=O)c2cnc(Nc3ccc4c(c3)C(C)(C)NCC4)nc12` [Example 463, 6-(2,6-dichlorophenyl)-2-[(1,1-dimethyl-1,2,3,4-tetrahydroisoquinolin-7-yl)amino]-8-ethylpyrimido[4,5-d]pyridazin-5(6H)-one]: the inhibition constant (Ki) turned out to be 0.55 nM.

For `C=CCn1nc(-c2ccccc2)c2nc(Nc3ccc4c(c3)CN(C)CC4)ncc2c1=O` [Example 230, 2-[(2-methyl-1,2,3,4-tetrahydroisoquinolin-7-yl)amino]-8-phenyl-6-(prop-2-en-1-yl)pyrimido[4,5-d]pyridazin-5(6H)-one], the Ki amounted to 5 nM.

On to `C=CCn1nc(-c2ccco2)c2nc(Nc3ccc(S(=O)(=O)N4CCOCC4)cc3)ncc2c1=O` [Example 140, 6-allyl-8-(2-furyl)-2-{[4-(morpholin-4-ylsulfonyl)phenyl]amino}pyrimido[4,5-d]pyridazin-5(6H)-one], for which the Ki is more than 3140 nM.
